Measurements taken from patent publication US9512128B2 (BAYER CROPSCIENCE AG, priority 2012, dated 2016).
Where two headings read alike, the source gives them in different places.

Columns and labels:
[1] = log P by HPLC on reversed-phase columns (C 18), EEC directive 79/831 Annex V.A8; type: physicochemical; details: for logP[a]: method [a]; for logP[b]: method [b]; for chromatographic logP: reversed-phase C18 HPLC column
How it was run: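 Measured by reversed-phase C18 HPLC (LC-MS) with a linear 10→95% acetonitrile gradient. Acidic: pH 2.7, 0.1% formic acid. Neutral: pH 7.8, 0.001 M ammonium bicarbonate.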

[2] = system: larvae of the mustard beetle (Phaedon cochleariae); assay: Phaedon cochleariae spray test (PHAECO); type: in vivo; details: application rate 500 g/ha, after 7 days, Chinese cabbage leaf discs
Procedure: 2. Phaedon cochleariae Spray Test (PHAECO)
(§1) • Solvents: 78.0 parts by weight of acetone • 1.5 part by weight of dimethylformamide • Emulsifier: 0.5 part by weight of alkylaryl polyglycol ether
(§2) To produce a suitable preparation of active compound, 1 part by weight of active compound is mixed with the stated amounts of solvents and emulsifier, and the concentrate is diluted with emulsifier-containing water to the desired concentration.
After 7 days, the efficacy in % is determined. 100% means that all of the beetle larvae have been killed; 0% means that none of the beetle larvae have been killed.

[3] = system: greenhouse red spider mite (Tetranychus urticae); assay: Tetranychus urticae spray test, OP-resistant (TETRUR); type: in vivo; details: application rate 500 g/ha, after 6 days, bean leaf discs
Procedure: 4. Tetranychus urticae Spray Test, OP-Resistant (TETRUR)
as §1, §2
Discs of bean leaves (Phaseolus vulgaris) which are infested by all stages of the greenhouse red spider mite (Tetranychus urticae) are sprayed with an active compound preparation of the desired concentration.
After 6 days, the efficacy in % is determined. 100% means that all of the spider mites have been killed; 0% means that none of the spider mites have been killed.

[4] = system: southern root-knot nematode (Meloidogyne incognita); assay: Meloidogyne incognita test (MELGIN); type: in vivo; details: application rate 20 ppm, after 14 days, lettuce
Procedure: 5. Meloidogyne incognita Test (MELGIN) • Solvent: 125.0 parts by weight of acetone To prepare a suitable active compound preparation, 1 part by weight of active compound is mixed with the stated amount of solvent and the concentrate is diluted with water to the desired concentration. Vessels are filled with sand, active compound solution, an egg/larvae suspension of the southern root-knot nematode (Meloidogyne incognita) and lettuce seeds. The lettuce seeds germinate and the plants develop. On the roots, galls are formed. After 14 days, the nematicidal effect in % is determined by the formation of galls. 100% means that no galls have been found; 0% means that the number of galls on the treated plants corresponds to the untreated control.

logP[a] [1] | logP[b] [1] | Structure (SMILES) | efficacy in % (beetle larvae killed) [2] [%] | efficacy in % (spider mites killed) [3] [%] | nematicidal effect in % (formation of galls) [4] [%] | also measured
1.52 | 1.50 | Cc1c2c(=O)n(-c3ccc(C#N)c([S+]([O-])CC(F)(F)F)c3)cnc2nn1C (racemic) [Compound 51] | 100 | – | – | –
2.30 | 2.24 | Cc1nn(C)c2ncn(-c3ccc(C#N)c(SCC(F)(F)F)c3)c(=O)c12 [Compound 34] | 100 | – | – | –
2.54 | 2.52 | Cc1cc(F)c(-n2cnc3scnc3c2=O)cc1SCC(F)(F)F [Compound 60] | 100 | – | – | –
2.70 | 2.67 | N#Cc1cc(F)c(-n2cnc3sccc3c2=O)cc1SCC(F)(F)F [Compound 82] | 100 | – | – | –
– | – | Cc1ccc(-n2cnc3sccc3c2=O)cc1[S+]([O-])CC(F)(F)F (stereo not drawn) [Compound 86, 3-{4-Methyl-3-[(2,2,2-trifluoroethyl)sulphinyl]phenyl}thieno[2,3-d]pyrimidin-4(3H)-one] | – | 90 | 90 | chromatographic logP ([1]; pH 2.7, acidic range, pH 2.7, 0.1% aqueous formic acid / acetonitrile, read-out: log P[a]): 1.94; chromatographic logP ([1]; pH 2.7, method [a], read-out: logP[a]): 1.94; chromatographic logP ([1]; pH 7.8, method [b], read-out: logP[b]): 1.93; chromatographic logP ([1]; pH 7.8, neutral range, pH 7.8, 0.001 molar aqueous ammonium bicarbonate / acetonitrile, read-out: log P[b]): 1.93
2.07 | 2.00 | N#Cc1ccc(-n2cnc3sccc3c2=O)cc1[S+]([O-])CC(F)(F)F (stereo not drawn) [Compound 88] | 100 | – | – | –
1.89 | 1.87 | N#Cc1ccc(-n2cnc3sccc3c2=O)cc1[S+]([O-])CC(F)(F)F (stereo not drawn) [Compound 95] | 100 | – | – | –
1.79 | 1.75 | N#Cc1ccc(-n2cnc3ccsc3c2=O)cc1[S+]([O-])CC(F)(F)F (stereo not drawn) [Compound 105] | 100 | – | – | –
2.07 | 2.03 | O=c1c2sccc2ncn1-c1ccc(Cl)c([S+]([O-])CC(F)(F)F)c1 (stereo not drawn) [Compound 106] | 83 | – | – | –
– | – | Cn1ncc2ncn(-c3cc(SCC(F)(F)F)c(Cl)cc3F)c(=O)c21 [Compound 148] | – | 100 | 100 | –
– | – | Cc1nc2cnn(C)c2c(=O)n1-c1cc(SCC(F)(F)F)c(Cl)cc1F [Compound 149] | – | 100 | 100 | –
– | – | Cc1cc(Cl)c(-n2nnc3cnn(C)c3c2=O)cc1[S+]([O-])CC(F)(F)F (stereo not drawn) [Compound 153] | – | 90 | 100 | –
– | – | Cc1nc2cnn(C)c2c(=O)n1-c1cc([S+]([O-])CC(F)(F)F)c(Cl)cc1F (stereo not drawn) [Compound 155] | – | 90 | 100 | –
– | – | Cc1cc(Cl)c(-n2c(C)nc3cnn(C)c3c2=O)cc1[S+]([O-])CC(F)(F)F (stereo not drawn) [Compound 157] | – | 100 | 90 | –
– | – | CCn1ncc2ncn(-c3cc(SCC(F)(F)F)c(C)cc3F)c(=O)c21 [Compound 159] | – | 100 | 100 | –

Structure (SMILES) | logP[a] [1] | logP[b] [1] | efficacy in % (beetle larvae killed) [2] [%] | efficacy in % (spider mites killed) [3] [%] | nematicidal effect in % (formation of galls) [4] [%] | also measured
Cc1nn(C)c2ncn(-c3ccc(Cl)c([S+]([O-])CC(F)(F)F)c3)c(=O)c12 (stereo not drawn) [Compound 37] | 2.01 | 1.98 | – | 90 | 80 | –
Cc1ccc(-n2cnc3nn(C)c(C)c3c2=O)cc1[S+]([O-])CC(F)(F)F (stereo not drawn) [Compound 47] | 1.54 | 1.51 | – | 90 | 80 | –
Cc1nc2c(=O)n(-c3cc(SCC(F)(F)F)c(C)cc3C)cnc2s1 [Compound 72] | 2.92 | 2.86 | – | 90 | 90 | –
Cc1nc2c(=O)n(-c3cc([S+]([O-])CC(F)(F)F)c(C)cc3C)cnc2s1 (stereo not drawn) [Compound 75] | 1.84 | 1.81 | – | 90 | 80 | –
Cc1cc(F)c(-n2cnc3ncsc3c2=O)cc1SCC(F)(F)F [Compound 78] | 2.51 | 2.48 | – | 90 | 90 | –
CC(C)(C)c1snc2ncn(-c3ccc(Cl)c([S+]([O-])CC(F)(F)F)c3)c(=O)c12 (stereo not drawn) [Compound 118] | 3.14 | 3.08 | – | 90 | 90 | –
